Legend:
hES SA121 cells = test: OCT4 and SOX17 protein ICC quantification during DE induction, DEF culture system; format: cell-based, human; settings: CHIR 3 μM D1 then Activin A D2-3, or D'Amour protocol
Experimental: Human embryonic stem (hES) cells SA121 and […]) were grown on human fibronectin (Sigma) in DEF culture media (Cellartis) with 30 ng/ml bFGF (Invitrogen) and 10 ng/ml Noggin (Peprotech) in 6-96 well plates. Cells were single cell passaged with Rock inhibitor Y-27632 (Calbiochem) and seeded at a density of 40000 cells/cm2 for experiments. Experiments were initiated 4 d after passage. Confluent cultures were washed once in RPMI1640 (Invitrogen) before 24 hour pre-treatment with 0,5-7μM CHIR99021 (Stemgent) in RPMI. Control cells were left untreated in RPMI and D'Amour cells were either left in RPMI or treated with AA (Peprotech)+Wnt3a (R&D Systems) without pre-treatment depending on experimental setup. After 24 hours, pretreated and control cells were washed once with RPMI before adding 100 ng/ml AA in RPMI. D'Amour cells were also treated with 100 ng/ml AA but with 0,2% FBS instead of B27. 24 h later, 2% B27 (Invitrogen) was added to the AA media for 2-3 d. Control cells were treated with B27 to prevent cell death and D'Amour cells with 2% FBS according to published protocol. Media was changed every day. • Day 1: Cells were washed carefully in prewarmed (37° C.) RPMI before starting the differentiation. Day1 medium was premixed (CHIR 3 μM in prewarmed RPMI+PEST) and gently added to cell culture. Volumes were adjusted according to plate formats. • Day 2: Cells were washed carefully in prewarmed (37° C.) RPMI before media change. Day2 medium was premixed (100 ng/ml Activin A in prewarmed RPMI+0.1% PEST) and gently added to cell culture. • Day 3: Day3&4 mediums were premixed (100 ng/ml Activin A and 2% B27 in prewarmed RPMI+0.1% PEST) and gently added to cell culture. • Day 4: DE was harvested or reseeded for further differentiation. Cells were checked under the microscope every day. Cells were washed in PBS+/+ and fixed in 4% formaldehyde for 30 min (10% formaline, VWR). The cells were then washed again three times in PBS and left in PBS (4° C.) until staining. Fixed cells were washed with PBS once, then permeabilized with 0.5% Triton X-100 in PBS for 6 min, washed in PBS and blocked with TNB buffer (0.1 M Tris-HCL pH 7.5, 0.15 M NaCl, 0.5% Blocking Reagent (Perkin Elmer)) for 30 min. Primary antibodies (goat-anti-SOX17 (AF1924, RnD Systems); goat-anti-Brachyury (AF2085, RnD Systems); mouse-anti-OCT4 (sc5279, SantaCruz Biotechnology); goat-anti-PDX1 (AB47383, Abcam)) were added in 0.1% TritonX-100+PBS for 1 h in RT or 4° C. O/N. After a thorough washing step in PBS, secondary antibodies were added together with DAPI in 0.1% Triton X-100+PBS for 45 min at RT, washed thoroughly in PBS and left in PBS until photodocumentation.

SA121 and chIPS cells = test: CHIR dose dependency: cell survival after titration and AA treatment; format: cell-based, human; settings: then 2 d AA
Experimental: Brachyury expression was analysed after 24 h treatment in SA121 (FIG. 7A) and chIPS cells (FIG. 7C). SOX17 expression was analysed D3 in SA121 (FIG. 7B) and chIPS cells (FIG. 7D)).
Confluent cultures were washed once in RPMI1640 (Invitrogen) before 24 hour pre-treatment with 0,5-7μM CHIR99021 (Stemgent) in RPMI. Control cells were left untreated in RPMI and D'Amour cells were either left in RPMI or treated with AA (Peprotech)+Wnt3a (R&D Systems) without pre-treatment depending on experimental setup.
Chir was titrated at concentrations between 1-7 uM and analyzed after 24 h Chir treatment (D1) and after 2 d of following AA treatment (D3).

SMILES: Cc1c[nH]c(-c2cnc(NCCNc3ccc(C#N)cn3)nc2-c2ccc(Cl)cc2Cl)n1 [CHIR, CHIR99021]
- OCT4 ICC % positive cells (hES SA121 cells; SA121, D1): 97.7%
- SOX17 ICC % positive cells (hES SA121 cells; SA121, D1): 0%
- OCT4 ICC % positive cells (hES SA121 cells; SA121, D2): 2.4%
- SOX17 ICC % positive cells (hES SA121 cells; SA121, D2): 72.1%
- OCT4 ICC % positive cells (hES SA121 cells; SA121, D3): 0.2%
- SOX17 ICC % positive cells (hES SA121 cells; SA121, D3): 93.1%
- cell survival D3 (SA121 and chIPS cells; CHIR 7 uM 24 h): did not survive d3
- cell survival D3 (SA121 and chIPS cells; CHIR 0.5-1 uM 24 h): did not survive d3

From patent publication US10487313B2, “Efficient induction of definitive endoderm from pluripotent stem cells” (Novo Nordisk A/S, priority 2011, dated 2019)
